Consider 3 compounds from patent US12534472B2, “Morphic forms of trilaciclib and methods of manufacture thereof” (Pharmacosmos Holding A/S, priority 2020, dated 2026).

What all share (type): physicochemical
The nature of series [1]: Thermodynamic solubility in water at pH 4.2. To be noted: for Observations at T = 24 hours: 30 mg/mL in water at pH 4.2, agitated at ambient temperature ca. 24 hours; for Observations at T = 0 hours: 30 mg/mL in water at pH 4.2, ambient temperature. On the procedure: Thermodynamic solubility was carried out for Pattern 1, Pattern 2/6 mixture, Pattern 3, amorphous di-HCl salts and Pattern 7 in water at pH 4.2. All samples were prepared at 30 mg/mL. Initial observations were made. The samples were agitated at ambient temperature for ca. 24 hours. The samples were collected and observations made. Observed solids were isolated via centrifugation. The mother liquor from the filtered sample was analyzed by HPLC. The pH 4.3 solution was prepared by diluting glacial acetic acid (11.6 mL) to 100 mL in deionized water, then adding sodium acetate (1.07 g) and acetic acid solution (5.9 mL) preparing up to 500 mL with deionized water; then the pH was adjusted to 4.2. The above technique was used to generate the images in FIG. 60.

Series [2] in a line: Solvent solubility screen (approximate solubility). As to the method: The solvent solubility experiment was carried out using various solvents to determine solid formation. A known volume aliquot (typically 5 volumes) of solvent was added to approximately 10 mg of amorphous Compound 1 as a dihydrochloride. Between each addition, the mixture was checked for dissolution and where no dissolution was apparent, the mixture was heated to ca. 40° C. and checked again. This procedure was continued until dissolution was observed or until 100 volumes of solvent had been added. All observed solids were isolated and analyzed by XRPD.
Examples of solvents include, but are not limited to, 1,4 dioxane, methanol, ethanol, propanol, butanol, butanone, ethoxyethanol, trifluoroethanol, methyl-THF, acetone, acetonitrile, anisole, chlorobenzene, DMSO, DMF, cumene, dichloromethane, ethyl acetate, ethylene glycol, heptane, isopropyl acetate, nitromethane, n-methylpyrrolidone, MIBK, t-BME, tetrahydrofuran, toluene, water and mixtures thereof. The above technique was used to generate the images in FIG. 8, FIG. 9, FIG. 10, FIG. 11, FIG. 12, FIG. 14.

The nature of series [3]: Solubility of trilaciclib (general statement).

With `CN1CCN(c2ccc(Nc3ncc4cc5n(c4n3)C3(CCCCC3)CNC5=O)nc2)CC1.Cl.Cl` [Amorphous Di-HCl], the “Observations at T = 24 hours” value in series [1] is “Yellow solution”. For the same compound, the “Observations at T = 0 hours” value in series [1] is on record as “Yellow solution (dissolved”. In addition, the “Approx. Solubility” value is <5000 µg/mL in series [2] (1,4-Dioxane, heated to ca. 40° C. where no dissolution); <5000 µg/mL in series [2] (1-Butanol, heated to ca. 40° C. where no dissolution); >200000 µg/mL in series [2] (2,2,2-Trifluoroethanol); <5000 µg/mL in series [2] (2-Butanone, heated to ca. 40° C. where no dissolution); <5000 µg/mL in series [2] (2-Ethoxyethanol, heated to ca. 40° C. where no dissolution); <5000 µg/mL in series [2] (2-Methyl THF, heated to ca. 40° C. where no dissolution). The “Approx. Solubility” value in series [2] (2-Propanol, heated to ca. 40° C. where no dissolution) is “ca 5 mg/mL”; in series [2] (Acetone, heated to ca. 40° C. where no dissolution), <5000 µg/mL; in series [2] (Acetonitrile/water (90:10% v/v), heated to ca. 40° C. where no dissolution), <5000 µg/mL; in series [2] (Acetonitrile, heated to ca. 40° C. where no dissolution) it was <5000 µg/mL; in series [2] (Anisole, heated to ca. 40° C. where no dissolution) it was <5000 µg/mL; in series [2] (Chlorobenzene, heated to ca. 40° C. where no dissolution) it was <5000 µg/mL. Further, the “Approx. Solubility” value in series [2] (Cumene, heated to ca. 40° C. where no dissolution) is “ca 5 mg/mL”; in series [2] (DMF, heated to ca. 40° C. where no dissolution) it was <5000 µg/mL; in series [2] (DMSO, heated to ca. 40° C. where no dissolution), “ca 5 mg/mL”; in series [2] (Deionized Water) it was >200000 µg/mL; in series [2] (Dichloromethane, heated to ca. 40° C. where no dissolution), <5000 µg/mL; in series [2] (Ethanol/water (85:15% v/v), heated to ca. 40° C. where no dissolution) it was <5000 µg/mL. The “Approx. Solubility” value was “ca 5 mg/mL” in series [2] (Ethanol, heated to ca. 40° C. where no dissolution); <5000 µg/mL in series [2] (Ethyl Acetate, heated to ca. 40° C. where no dissolution); 50000 µg/mL in series [2] (Ethylene glycol); <5000 µg/mL in series [2] (Heptane, heated to ca. 40° C. where no dissolution); <5000 µg/mL in series [2] (Isopropyl acetate, heated to ca. 40° C. where no dissolution); 20000 µg/mL in series [2] (Methanol/water (95:5% v/v)). Besides, the “Approx. Solubility” value in series [2] (Methanol, heated to ca. 40° C. where no dissolution) was “ca 5 mg/mL”; in series [2] (Methyl isobutyl ketone, heated to ca. 40° C. where no dissolution), <5000 µg/mL; in series [2] (N-Methylpyrrolidone, heated to ca. 40° C. where no dissolution), <5000 µg/mL; in series [2] (Nitromethane), 33000 µg/mL; in series [2] (Tetrahydrofuran/water (99:1% v/v), heated to ca. 40° C. where no dissolution), <5000 µg/mL; in series [2] (Tetrahydrofuran, heated to ca. 40° C. where no dissolution) it was <5000 µg/mL. Moreover, the “Approx. Solubility” value is <5000 µg/mL in series [2] (Toluene, heated to ca. 40° C. where no dissolution) and <5000 µg/mL in series [2] (t-Butylmethyl ether, heated to ca. 40° C. where no dissolution).
On to `CN1CCN(c2ccc(Nc3ncc4cc5n(c4n3)C3(CCCCC3)CNC5=O)nc2)CC1` [trilaciclib, 2′-((5-(4-methylpiperazin-1-yl)pyridin-2-yl)amino)-7′,8′-dihydro-6′H-spiro[cyclohexane-1,9′-pyrazino[1′,2′:1,5]pyrrolo[2,3-d]pyrimidin]-6′-one], for which the “solubility in DMSO” value in series [3] (DMSO) is on record as “practically insoluble”. For the same compound, the solubility in water entry in series [3] (water) is listed as “not very soluble”.
Take `CN1CCN(c2ccc(Nc3ncc4cc5n(c4n3)C3(CCCCC3)CNC5=O)nc2)CC1` [Pattern 7, 2′-((5-(4-methylpiperazin-1-yl)pyridin-2-yl)amino)-7′,8′-dihydro-6′H-spiro[cyclohexane-1,9′-pyrazino[1′,2′:1,5]pyrrolo[2,3-d]pyrimidin]-6′-one]: in series [1], the “Observations at T = 24 hours” value was “Off-white slurry” and the “Observations at T = 0 hours” value is “Off-white slurry”.
